Experiment: gradient 5% acetonitrile 3 min, to 50% in 2 min, to 85% in 15 min, held 3 min, 100 µL/min
Conditions: column: Zorbax Extend-C18 2.1 x 50 mm; eluents: water / acetonitrile, 0.1% formic acid
Procedure, shortened: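 In both positive and negative ionization mode, a quadrupole time-of-flight mass spectrometer coupled to HPLC analyzed pure standards run in mixtures of ~100 molecules. The Zorbax Extend-C18 column (2.1 × 50 mm, 1.8 μm) was operated at 100 μL/min with water and acetonitrile, each containing 0.1% formic acid. The dead volume was 40 μL and the dwell volume 900 μL. Retention time came from adduct peaks that were computationally picked and individually inspected by hand.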

SMILES | RP-LC retention time
COC(=O)c1c(C)[nH]c(C(=O)N2CCCC(C(=O)N3CCCCCC3)C2)c1C (configuration not stated) | 723 s
CCOCCCNC(=O)Nc1c(-c2cccc(C)c2)nc2ccccn12 | 863 s
COc1ccc(OC)c(NC(=O)C(=O)c2cccn2C)c1 | 1000 s
Cc1cc(C(=O)N2CCC3(CC2)CC(O)CCO3)c(C)o1 (configuration not stated) | 624 s
Cc1noc(C)c1S(=O)(=O)N1[C@H]2CC[C@@H]1c1cnc(-c3ccc(F)cc3)nc1C2 | 1060 s
O=C1CCc2cc(NC(=O)c3ccc(-c4ccccc4)cc3)ccc2N1 | 760 s
CS(=O)(=O)N(C1CCOCC1)C1CN(C(=O)NCCc2ccccc2)C1 | 684 s
CCOc1ccccc1-c1noc(CN2C(=O)COc3ccc(S(=O)(=O)CC)cc32)n1 | 902 s
CCN1C(=O)CC[C@]2(CNC(=O)c3ccc(OC)nc3)CCC[C@@H]12 | 671 s
CC(C)CCNC(=O)C1(C)CN(S(=O)(=O)c2ccccc2)CC(=O)N1CCCN1CCCCC1 (configuration not stated) | 674 s
CC(NC(=O)Nc1cccc(Br)c1)C(=O)N1CCc2ccccc21 (configuration not stated) | 950 s
Cc1[nH]c(C)c(S(=O)(=O)N2CCC(C(=O)NC3CCCCCCC3)CC2)c1C(=O)N1CCCC1 | 745 s
CCN(CC)C(=O)c1ccc2c(c1)N(CC(=O)NCc1ccccn1)C(=O)CO2 | 594 s
COc1cccc(CNC2=NCCNC23CCN(S(=O)(=O)c2ccc4c(c2)CCCC4)CC3)c1 | 822 s
CCC(=Cc1ccc(CC)cn1)CC | 686 s
Cc1[nH]c(=O)[nH]c(=O)c1CCC(=O)Nc1ccccc1C(N)=O | 547 s
CCCN(C)C(=O)C1c2ccccc2CC(=O)N1Cc1ccccc1 (configuration not stated) | 828 s
COc1ccccc1C1=NN(C(C)=O)C(C)(c2cccc(OC(C)=O)c2)O1 (configuration not stated) | 852 s
COc1ccc(OC)c(NC(=O)NCc2cccn2Cc2ccccc2)c1 | 927 s
Fc1cccc(-c2noc(-c3ccc(N4CCN(Cc5ccc6c(c5)OCO6)CC4)nc3)n2)c1 | 834 s
Cc1ccc(-c2noc(CN3N=NC4C(=O)N(c5ccc(F)c(Cl)c5)C(=O)C43)n2)cc1 (configuration not stated) | 1090 s
O=C(CSc1nc2ccccc2o1)NCCn1nc(-c2ccco2)ccc1=O | 674 s
Cc1cc(C)n2nc(CN(C(=O)c3ccco3)c3ccccc3Cl)nc2n1 | 743 s
Cc1cc(C)c(NC(=O)CN2C(=O)NC3(CCC(C)CC3)C2=O)c(C)c1 (configuration not stated) | 570 s
CCCCC(=O)N1CCN(C(=O)c2cc3cc(Br)ccc3[nH]2)CC1 | 873 s
CCCn1nccc1-c1csc(S(=O)(=O)N2CCCC2)c1 | 912 s
Cc1ncc2c(n1)C[C@@H]1CC[C@H]2N1C(=O)Nc1ccccc1F | 638 s
Cc1ccn2c(NC(=O)c3ccccc3)c(-c3ccccc3)nc2c1 | 646 s
Cc1sc(NC(=O)C(C)(C)C)nc1-c1ccc2c(c1)NC(=O)CO2 | 830 s
C=CCN1C(=O)COc2ccc(-c3csc(NC(=O)c4ccc(OC)c(OC)c4)n3)cc21 | 943 s

More lines, now with the values ahead:

RP-LC retention time | SMILES
690 s | Cc1ccc(C)c(C(=O)N2CCC(c3cc4n(n3)CCCN(C)C4=O)CC2)c1
542 s | COCCN1CCC(N2CCN(C(=O)C3(c4ccccc4)CC3)CC2)C1=O (configuration not stated)
1260 s | CCCCCCCNC(=O)C1CCCN(c2ncc(-c3ccc(F)cc3)cn2)C1 (configuration not stated)
848 s | COc1ccc(CN2C(=O)c3ccccc3C2C(=O)NC2CCCC2)c(OC)c1 (configuration not stated)
653 s | CCN1CCC2(CC1)OC(=O)C(C)=C2C(=O)NCCc1ccc(Cl)cc1
613 s | COc1ccc(-c2cc(C(=O)N3CCN(C)CC3)nn2C2CCS(=O)(=O)C2)cc1 (configuration not stated)
1040 s | NC(=O)c1c(NC(=O)c2ccc(Br)s2)sc2c1CCCCC2
826 s | COc1cc(OC)cc(C(=O)N2CCC3(CC2)NC(=O)c2cc(Cl)ccc2N3C)c1
928 s | CCOc1ccccc1NC(=O)Cn1ccc2ccc(-c3nnc(CC)o3)cc21
666 s | O=C(NCc1ccccc1)C1CC(=O)N(C2CN(Cc3ccc(C(F)(F)F)cc3)C2)C1 (configuration not stated)
635 s | O=C(NCc1ccc(F)cc1)c1ccnc(N2CCNC(c3ccccc3)C2)c1 (configuration not stated)
722 s | CCCOc1nccnc1NC1CCN(C(=O)c2ccn(CC)n2)CC1
742 s | CC(=O)N1CCc2cc(N3CC(C(=O)NCc4cc(C)ccc4C)CC3=O)ccc21 (configuration not stated)
731 s | CCn1cnc2cc(-c3noc(C4CC(=O)N(c5cccc(Cl)c5)C4)n3)ccc21 (configuration not stated)
933 s | O=S(=O)(c1cc(-c2noc(C3CCCC3)n2)cs1)N(Cc1cccs1)C1CCCC1
704 s | Cn1nccc1C(=O)N1CCC(NS(=O)(=O)c2ccc(Cl)cc2)CC1
762 s | Cc1cccc(CNC2=NCCNC23CCN(S(=O)(=O)c2ccc(Cl)cc2)CC3)c1
645 s | CC(C)c1nnc2ccc(N3CCOCC3)nn12
723 s | Cc1cc(NCC2CCCO2)n2nc(-c3ccc(Cl)cc3)c(C)c2n1 (configuration not stated)

RP-LC retention time | SMILES
549 s | COc1cccc(CN2CCn3c(nnc3[C@@H]3C[C@@H](O)CN3C)C2)c1OC
776 s | Cc1cc(F)ccc1NC(=O)c1cc2n(n1)CC(C)(C(=O)NC1CCCCC1)N(C)C2=O (configuration not stated)
874 s | Cc1nc(N2CCC(C(=O)Nc3ccc(F)cc3F)CC2)c2c(C)c(C)oc2n1
756 s | COc1ncc(C(=O)NCc2ccc(F)c(Cl)c2)cn1
684 s | O=C(NC1CCCC1)c1cccnc1N1CCCCC1
596 s | O=C(Cc1cccs1)NC1CCN(c2nnc3ccc(Cl)cn23)CC1
1150 s | Cc1ccc(C(=O)N2CCc3nc(-c4ccc(Cl)cc4)ncc3C2)cc1F
1110 s | O=C(c1ccccc1Br)N1CCc2nc(-c3ccc(Cl)cc3)ncc2C1
720 s | CCOc1ccc(NC(=O)N2CCC3(C2)C(=O)Nc2ccccc23)cc1 (configuration not stated)
1280 s | Cc1sc(NC(=O)Cc2csc(-c3ccccc3)n2)nc1-c1ccc(Cl)cc1
855 s | COc1ccc(CNC(=O)c2cn(C)nc2S(=O)(=O)N2CCSCC2)c(OC)c1
603 s | CCCN1CCn2cc(C(=O)NC(C)c3ccccc3)nc2C1 (configuration not stated)
984 s | COC(=O)c1cccc(NC(=O)c2csc(-c3cn(C)c4ncccc34)n2)c1
593 s | COc1ccc(C(=O)N2CCn3c(C)nnc3C2)cc1F
582 s | COc1ccc(N2CC(C(=O)N3CCN(c4ccccn4)CC3)CC2=O)cc1 (configuration not stated)
672 s | O=C(CC1CCN(S(=O)(=O)c2ccc(Cl)s2)CC1)N1CCN(c2ccccn2)CC1
1060 s | O=C(Nc1cccc(Br)c1)N1CCCC1c1nc(-c2ccc(F)cc2F)no1 (configuration not stated)
589 s | C=CCNC(=O)CCc1c(-c2ccc(F)cc2)nc2ccccn12
